Data set [1] has as its system Branches of Carmel cultivars (almond). The data set is described as follows: Experiment 3: pollen germination, pollen tube length and fruit set after treatment during flowering. The settings on record: percent of flowers containing germinated pollen, versus control. In kind it is in vivo, Prunus dulcis. On the procedure:
Branches of Carmel cultivars were selected from a mature almond orchard further comprising Solando and Non […] cultivars. During flowering, the selected branches received either a brassinosteroid treatment (BL, EBL, or HBR) (FIGS. 1, 2, and 3) or a gibberellic acid (FIG. 4) treatment. Four hours after treatment the percent of flowers which contained germinated pollen was determined. Twenty-four hours after treatment the length of each pollen tube was measured. Finally, fruit set was tabulated 50 days after fertilization. Results across the brassinosteroids were similar. […] Fruit set at 50 days after flowering was greater in the BR group than either GA3 or control.

The conditions of data set [2]: diluted solution; pH should be no greater than 7.0, optimally between 4.0 and 5.0; cited from earlier work.
The test system of data set [3] is non Pareil almond tree. The data set can be described thus: Experiment 2: effects of HBR on nut size and fruit set in almond trees. It counts as in vivo, Prunus dulcis. The note with it: 1 ppm HBR sprayed two weeks after full bloom; final fruit set at harvest. An excerpt: The effects of HBR on nut size and fruit set were studied in a population of 20 year old almond trees in Paine, Region 6 of Chile. The experimental design used a randomized block pattern with 10 replications of each experimental condition. Each experimental unit was a shoot of a non […] almond tree which was pollinated by bees in Solano and Carmel cultivars. Sufficient bee colonies were used for pollination of the orchard, including trees not receiving an experimental treatment. Flowers at full bloom were tallied and two weeks later the test branches were sprayed with either a control containing just water, a solution containing HBR at a rate of 1 ppm, a 10 ppm solution of HBR, or a solution of 10 ppm HBR and 10 ppm CPPU. Final fruit set on each test branch was taken at harvest. The percentage of fruit set was calculated by dividing the number of fruit per branch by the number of flowers counted before treatment and multiplying the result by 100.

In the case of `CC[C@@H](C(C)C)C(O)C(O)[C@@H](C)[C@H]1CC[C@H]2[C@@H]3COC(=O)[C@H]4C[C@H](O)[C@H](O)C[C@]4(C)[C@H]3CC[C@]12C` (stereo in doubt) [HBR, homobrassinolide], the “pollen germination after four hours” value in data set [1] was “most effective treatment”. Besides, in data set [2], the “stability at alkaline pH levels” value is given as “not stable”. In addition, the “increase of fruit set over control” value in data set [3] is given as 21.1%.

Values taken from patent publication US20180332852A1, “Increased Almond Yields with Brassinosteroid Application” (Repar Corporation, priority 2017, published 2018).
